These results are taken from patent US20220381657A1, “METHOD FOR PREPARING BIOLOGICAL MATERIAL HAVING EXCELLENT LIGHT-TRANSMITTING PROPERTY” (RIKEN, priority 2016, published 2022).

Structures can show the parent of a compound that is named as a salt.

The first data set has as its system fixed brain tissue suspension. Put plainly: 1st delipidation assay: solubilization of fixed brain tissue suspension, turbidity at 600 nm. More on the design: species or system mice. The conditions noted are these: Table 1; 10 wt % chemical, fixed mouse brain suspension, 37° C. overnight; PBS = 1.000. Here is the method:
Specifically, brains taken out of mice were sheared with a utility knife and then were disrupted by ultrasonication. To each of the resultant suspensions, an equal volume of 8% PFA solution was added to perform fixation at 4° C. for 1 hour. The resultant mixture was centrifuged to remove the supernatant, and the fixed brain tissue was washed with PBS for 3 times. PBS was added so as to obtain 2 mL of a fixed brain tissue suspension per brain. The fixed brain tissue suspension was diluted by 3.5 folds. To 20 μL of the resultant suspension, 130 μL of each 10 wt % chemical was added and was shaken at 37° C. overnight. Thus obtained mixed solutions were subjected to absorbance (turbidity) measurement at 600 nm. It is expected that a chemical solution which reduces the turbidity of a fixed brain suspension allows reducing light scattering by solubilizing lipids, which act as a scattering factor, in the brain tissue.
On to `CN1CCCC1` [#1295, 1-Methylpyrrolidine], for which the “1st delipidation assay Relative OD600” value is 0.325.

Regarding `Cc1ccnc(C)c1` [#1312, 2,4-Lutidine], the “1st delipidation assay Relative OD600” value stood at 0.325.

In the case of `CCCCCCCCCCCS(=O)(=O)[O-].[Na+]` [#1419, Sodium 1-undecanesulfonate], the “1st delipidation assay Relative OD600” value was 0.124.

For `CN(C)C(=N)N(C)C` [#1444, 1,1,3,3-Tetramethylguanidine], the “1st delipidation assay Relative OD600” value is listed as 0.124.

Take `CC1(C)CC(N)CC(C)(CN)C1` (centres unmarked) [#1602, Isophoronediamine]: the “1st delipidation assay Relative OD600” value worked out at 0.190.

Take `CC(O)CN(CCN(CC(C)O)CC(C)O)CC(C)O` (centres unmarked) [Quadrol ®, reference compound]: the “1st delipidation assay Relative OD600” value is 0.569.

For Triton ™ X-100 [reference compound], the “1st delipidation assay Relative OD600” value came to 0.240.

As to Tween ® 40 [#1455], the “1st delipidation assay Relative OD600” value was determined as 0.073.

For Tween ® 80 [#1460], the “1st delipidation assay Relative OD600” value is listed as 0.095.

The subject of another data set is bovine coagulated blood. Put plainly: Decoloring screening: heme eluted from bovine coagulated blood (OD420-OD700). The conditions noted are these: decolorization; OD420 calibrated by OD700. As to the method: A high-throughput screening system for evaluating the decoloring ability of various compounds was constructed. The screening system involved adding an aqueous solution of each compound to bovine coagulated blood and then measuring the absorbance of heme collected in the supernatant.
Specifically, to bovine blood, an equal amount of 8% PFA solution was added, and reacted at 4° C. overnight. The mixed liquid was centrifuged at 1500×g for 5 minutes, and the supernatant containing PFA was discarded. Then, the same amount of PBS as the original volume of blood was added to prepare a coagulated blood sample. To 150 μL of 10 wt % aqueous solution of each compound, 50 μL of the coagulated blood sample was added, and reacted at 37° C. overnight. The reaction solution was centrifuged at 1500×g for 5 minutes, and then 100 μL of the supernatant was added to a plate so as to be subjected to absorbance measurement. A sample which is suspended in water instead of being dissolved in the water has a weak decoloring effect, but none the less has a high absorbance value. […]
Turning to `Cc1ccnc(C)c1` [#1312, 2,4-Lutidine], the “700 nm calibrated 420 nm Average” value is 2.47.

As for `CN(C)C(=N)N(C)C` [#1444, 1,1,3,3-Tetramethylguanidine], the “700 nm calibrated 420 nm Average” value came to 1.38.

On to `CC1(C)CC(N)CC(C)(CN)C1` (centres unmarked) [#1602, Isophoronediamine], for which the “700 nm calibrated 420 nm Average” value turned out to be 2.08.

Turning to Tween ® 40 [#1455], the “700 nm calibrated 420 nm Average” value is listed as 1.38.

The data set is the same for the next values; noted with them: decolorization; integrated absorbance 500-700 nm.
For `Cc1ccnc(C)c1` [#1312, 2,4-Lutidine], the “integrated value 500-700 nm Average” value amounted to 2.59.

On to `CN(C)C(=N)N(C)C` [#1444, 1,1,3,3-Tetramethylguanidine], for which the “integrated value 500-700 nm Average” value is reported as 1.15.

Regarding `CC1(C)CC(N)CC(C)(CN)C1` (centres unmarked) [#1602, Isophoronediamine], the “integrated value 500-700 nm Average” value came to 1.26.

Consider Tween ® 40 [#1455], for which the “integrated value 500-700 nm Average” value is recorded as 1.21.

Test system in the next data set: not listed separately
Put plainly: Refractive index of high-concentration aqueous solution.
Details: not given
In kind it is physicochemical. The text has this: The refractive index of an aqueous solution is commonly known to increase in a solute concentration-dependent manner, and the refractive index of a reagent per unit weight of the reagent varies among individual reagents. Accordingly, two properties are required in order to prepare a high refractive index aqueous solution: (1) an extremely high water-solubility and (2) a […] which allows achieving a high refractive index in a low-concentration aqueous solution.
On to `CNCC(O)c1cccc(O)c1.Cl` (racemic) [#1142, DL- Phenylephrine hydrochloride], for which the RI worked out at 1.4954.

The data set is the same for the next values; noted with them: Table 3; chemical conc. 70 wt %.
In turn, `CN(C)CCSSCCN(C)C` [#0299, Bis(2-dimethyl-aminoethyl) disulfide dihydrochloride] gave an RI of 1.4937.

Consider `CN(C)CCOC(c1ccccc1)c1ccccc1.Cl` [#0809, Diphen- hydramine hydrochloride], for which the RI was 1.4990.

`Cc1cccc(C)c1NC1=NCCCS1.Cl` [#1612, Xylazine hydrochloride] yielded an RI of 1.4956.

The same data set, now with this note: Table 3; chemical conc. 80 wt %.
Compound `CCCC[N+](CCCC)(CCCC)Cc1ccccc1.[Cl-]` [#0307, Benzyltributyl- ammonium chloride] registered an RI of 1.4939.

Staying with this data set, now noted: Table 3; chemical conc. 85 wt %.
`CCCC[n+]1ccccc1.[Br-]` [#0315, 1-Butyl-pyridinium bromide] had an RI of 1.5090.

In another data set the test system is Serius.
Assay: not given
The following applies: relative fluorescence.
In the case of `Cc1ccnc(C)c1` [#1312, 2,4-Lutidine], the “Fluorescence quench Average” value was 0.84.

As to `CN(C)C(=N)N(C)C` [#1444, 1,1,3,3-Tetramethylguanidine], the “Fluorescence quench Average” value turned out to be 0.14.

Take `CC1(C)CC(N)CC(C)(CN)C1` (centres unmarked) [#1602, Isophoronediamine]: the “Fluorescence quench Average” value was found to be 0.53.

As for Tween ® 40 [#1455], the “Fluorescence quench Average” value came out at 0.64.

Test system in a further data set: not given
Assay: not given
The conditions noted are these: OD at 400 nm of the chemical.
As to `Cc1ccnc(C)c1` [#1312, 2,4-Lutidine], the 400 nm is given as 0.051.

The compound `CN(C)C(=N)N(C)C` [#1444, 1,1,3,3-Tetramethylguanidine] came in with a 400 nm of 0.072.

The compound `CC1(C)CC(N)CC(C)(CN)C1` (centres unmarked) [#1602, Isophoronediamine] came in with a 400 nm of 0.051.

Tween ® 40 [#1455]: the 400 nm came out at 0.083.

The same data set, now with this note: Table 1.
`CN1CCCC1` [#1295, 1-Methylpyrrolidine] registered an OD400 of 0.085.

The compound `Cc1ccnc(C)c1` [#1312, 2,4-Lutidine] registered an OD400 of 0.051.

With `CCCCCCCCCCCS(=O)(=O)[O-].[Na+]` [#1419, Sodium 1-undecanesulfonate], the OD400 came to 0.056.

As for `CN(C)C(=N)N(C)C` [#1444, 1,1,3,3-Tetramethylguanidine], the OD400 is on record as 0.072.

For `CC1(C)CC(N)CC(C)(CN)C1` (centres unmarked) [#1602, Isophoronediamine], the OD400 stood at 0.051.

`CC(O)CN(CCN(CC(C)O)CC(C)O)CC(C)O` (centres unmarked) [Quadrol ®, reference compound] returned an OD400 of 0.048.

Take Tween ® 40 [#1455]: the OD400 was 0.083.

In turn, Tween ® 80 [#1460] displayed an OD400 of 0.065.

Still in this data set, the particulars now being: Table 3.
Take `CCCC[n+]1ccccc1.[Br-]` [#0315, 1-Butyl-pyridinium bromide]: the OD400 turned out to be 0.048.

Test system in the next data set: not given
Assay: not given
The following applies: Table 1.
In turn, `CN1CCCC1` [#1295, 1-Methylpyrrolidine] displayed a pH of 10.5.

Take `Cc1ccnc(C)c1` [#1312, 2,4-Lutidine]: the pH came to 7.6.

Consider `CCCCCCCCCCCS(=O)(=O)[O-].[Na+]` [#1419, Sodium 1-undecanesulfonate], for which the pH amounted to 5.9.

The compound `CN(C)C(=N)N(C)C` [#1444, 1,1,3,3-Tetramethylguanidine] had a pH of 12.4.

`CC1(C)CC(N)CC(C)(CN)C1` (centres unmarked) [#1602, Isophoronediamine] yielded a pH of 10.8.

The compound `CC(O)CN(CCN(CC(C)O)CC(C)O)CC(C)O` (centres unmarked) [Quadrol ®, reference compound] came in with a pH of 12.4.

Tween ® 40 [#1455] showed a pH of 6.4.

Tween ® 80 [#1460]: the pH was 5.7.

Still in this data set, the particulars now being: Table 3.
For the compound `CCCC[n+]1ccccc1.[Br-]` [#0315, 1-Butyl-pyridinium bromide], the pH was 5.6.

The same data set, now with this note: […].
Turning to `Cc1ccnc(C)c1` [#1312, 2,4-Lutidine], the pH was found to be 7.6.

`CN(C)C(=N)N(C)C` [#1444, 1,1,3,3-Tetramethylguanidine] came in with a pH of 12.4.

Take `CC1(C)CC(N)CC(C)(CN)C1` (centres unmarked) [#1602, Isophoronediamine]: the pH is recorded as 10.8.

With Tween ® 40 [#1455], the pH is recorded as 6.4.
